Where “and” joins values, the source holds several entries; their conditions need not be identical. Equal values may be shown once. Marks after values point to notes of the source that are not given here.
Legend:
Format in all cases: physicochemical
[1] = UV absorbance spectrum in solution (λmax, λcrit, extinction coefficients); details: for λcrit: critical wavelength; for E (1%, 1 cm): mass extinction coefficient; for ε: molar extinction coefficient, in M-1 cm-1 (unit assumed)
Excerpt: (§1) FIG. 1 is a graphical representation of the absorbance of compounds 142 and 143 measured in a 10 mm cuvette as 0.001% solutions in methanol (142 is the uppermost trace at peak point of approximately 330 nm); The synthesised benzoyl functionalised compounds and their spectroscopic properties can be seen in table 2 wherein; breakthrough denotes the value in nm where transmittance increases beyond 1%; steepness refers to the distance in nm over which transmittance increases from 1 to 80% (a higher value indicates a less steep transition from absorbing to transmitting and is generally unfavourable); and ^a denotes an average of multiple measurements. As a general comment, it can be noted that the benzoyl substituted compounds gave similar absorbance maxima to the corresponding trifluoroacetyl derivative.

[2] = % transmission spectrum of 0.1% solution (breakthrough, steepness); details: for Steepness: distance in nm over which transmittance increases from 1 to 80%; for Breakthrough (1% T at 0.1%): value in nm where transmittance increases beyond 1%, 0.1% solution
Excerpt: FIG. 2 is a is a graphical representation of the % transmission of compounds 142 and 143 measured in a 2 mm cuvette as 0.1% solutions in methanol (142 is the left most trace);
as §1, with “The” for “FIG. 1 is a graphical representation of the absorbance of compounds 142 and 143 measured in a 10 mm cuvette as 0.001% solutions in methanol (142 is the uppermost trace at peak point of approximately 330 nm); The”

[3] = Photostability protocol: thin film irradiated with xenon arc lamp; details: 1 hour xenon arc lamp, ratio of absorbance at λmax irradiated vs unirradiated, ^a = average of multiple measurements
Description: 1 mL of a 3% solution of the test compound (30 mg of test compound in 1 mL solvent) was prepared in a solvent mix made up of 50% EtOH and 25% capric/caprylic triglyceride and 25% C12-C15 alkyl benzoate. 50 μL of this solution (containing 1.5 mg of test compound) was added carefully to the centre of a glass microscope slide and the volatile components left to evaporate in the dark for at least 3 hours to give a liquid film. The prepared films were then exposed for 1 hour to an Eimac 150 W xenon arc lamp filtered through Pyrex (15 Amp supply current, samples 19 cm from the lamp) previously allowed to warm up for 15 minutes prior to sample exposure. The irradiation was performed in a fume cupboard where the air flow was sufficient to keep sample T<30° C. One hour's exposure represented a calculated radiation dose (using meter) of approximately 100 MED.
In order to calculate the photostability of the test compounds, the exposed slides were placed in a beaker and rinsed with 2×5 mL EtOH, 1×5 mL MeOH. The combined washings were then added to a 100 mL volumetric flask and made up to 100 mL total volume with methanol. The UV absorbance was then measured in a 10 mm cuvette. The percent stability is measured as the ratio of absorbance at λmax for the irradiated sample compared to the unirradiated sample.
The thin films are a good surrogate for testing the stability of a candidate in, for example, a sunscreen formulation as they use cosmetic emollients as solvent and are formed at cosmetically relevant concentrations.

| λmax [1] [nm] | λcrit [1] [nm] | E (1%, 1 cm) [1] | ε [1] | Steepness [2] [nm] | Breakthrough (1% T at 0.1%) [2] | Photostability [3] | Structure (SMILES) |
| --- | --- | --- | --- | --- | --- | --- | --- |
| 367 | 384 | 1339 | 48637 | 16 | 401 nm | 87% and 88% | COC(=O)c1ccc2c(c1)CCN2/C=C(/C(=O)C(C)(C)C)c1ccccc1 [Compound 283] |
| 375 | 391 | 1078 | 48709 | 23 | 417 nm | 80% and 75% | COC(=O)c1ccc2c(c1)CCN2/C=C(/C(=O)C(=O)N1CCc2ccccc21)c1ccccc1 [Compound 305] |
| 355 | 378 | 991 | 33598 | 30 | 399 nm | 52% | Cc1ccccc1C(=O)/C(=C/N1CCc2ccccc21)c1ccccc1 [Compound 251] |
| 372 | 391 | 953 | 44118 | 30 | 418 nm | 88% | CCCCC(CC)COC(=O)C(=O)/C(=C/N1CCc2cc(C(=O)OC)ccc21)c1ccccc1 (stereo not shown) [Compound 278] |
| 365 | 384 | 1023 | 75535 | 19 | 401 nm | 90% and 92% | CC(C)(C)C(=O)/C(=C/N1CCc2cc(C(=O)OCCCOC(=O)c3ccc4c(c3)CCN4/C=C(/C(=O)C(C)(C)C)c3ccccc3)ccc21)c1ccccc1 [Compound 304] |
| 362 | 386 | 887 | 30075 | 35 | 421 nm | 80% | Cc1ccc(C(=O)/C(=C/N2CCc3ccccc32)c2ccccc2)cc1 [Compound 272] |
| 359 | 384 | 1045 | 33443 | 23 | 409 nm | 63% | CN(C)C(=O)C(=O)/C(=C\N1CCc2ccccc21)c1ccccc1 [Compound 258] |
| 358 | 383 | 1074 | 38139 | 30 | 406 nm | 56% | COc1ccccc1C(=O)/C(=C/N1CCc2ccccc21)c1ccccc1 [Compound 275] |
| 355 | 375 | 929 | 34122 | 26 | 392 nm | 78% | Cc1cc(C)c(C(=O)/C(=C/N2CCc3ccccc32)c2ccccc2)c(C)c1 [Compound 253] |
| 357 | 370 | 1405 | 59157 | 18 | 381 nm | 78% | CCC(CC)(CC)OC(=O)/C(=C/N1CCc2cc(C(=O)OC)ccc21)c1ccccc1 [Compound 289] |
| 365 | 388 | 872 | 34350 | 26 | 414 nm | 95% | O=C(C(=O)N1CCc2ccccc21)/C(=C/N1CCc2ccccc21)c1ccccc1 [Compound 277] |
| 363 | 388 | 989 | 31758 | 34 | 418 nm | 80% | CCOC(=O)C(=O)/C(=C\N1CCc2ccccc21)c1ccccc1 [Compound 231] |

More lines, now with the values behind:

| Structure (SMILES) | λmax [1] [nm] | λcrit [1] [nm] | E (1%, 1 cm) [1] | ε [1] | Steepness [2] [nm] | Breakthrough (1% T at 0.1%) [2] | Photostability [3] |
| --- | --- | --- | --- | --- | --- | --- | --- |
| CCCCC(CC)COC(=O)c1ccc2c(c1)CCN2/C=C(/C(=O)C(C)(C)C)c1ccc(Br)cc1 (stereo not shown) [Compound 309] | 366 | 384 | 780 | 42050 | 19 | 397 nm | 80% |
| COC(=O)c1ccc2c(c1)CCN2C=C(C(=O)C(C)(C)C)c1ccc(C(C)(C)C)cc1 [Compound 296] | 368 | 384 | 1213 | 50838 | 16 | 401 nm | 73% |
| CCCN(/C=C(/C(=O)C(F)(F)F)c1ccccc1)c1ccccc1 [Compound 233] | 331 | 365 | 734 | 24467 | 36 | 380 nm | 87% |
| Cc1cc(C)c(C(=O)/C(=C/N(c2ccccc2)c2ccccc2)c2ccccc2)c(C)c1 [Compound 254] | 341 | 369 | 661 | 27592 | 32 | 383 nm | 88^a % |
| CCN(/C=C(/C(=O)c1ccccc1)c1ccccc1)c1ccccc1 [Compound 245] | 333 | 374 | 621 | 20292 | 40 | 384 nm and 394 nm | 55% |
| O=C(/C(=C/N(c1ccccc1)c1ccccc1)c1ccccc1)c1ccccc1 [Compound 244] | 352 | 383 | 536 | 20114 | 43 | 407 nm | 58% |
| CCN(/C=C(/C(=O)c1c(C)cc(C)cc1C)c1ccccc1)c1ccccc1 [Compound 255] | 323 | 351 | 798 | 29450 | 34 | 364 nm | 83^a % |
| Cc1ccc(C(=O)/C(=C/N(c2ccccc2)c2ccccc2)c2ccccc2)cc1 [Compound 274] | 353 | 384 | 420 | 16369 | 42 | 411 nm | 76% |
| CCN(/C=C(/C(=O)c1ccccc1OC)c1ccccc1)c1ccccc1 [Compound 276] | 327 | 366 | 711 | 25385 | 40 | 379 nm | 56% |
| CCN(/C=C(/C(=O)C(=O)N(C)C)c1ccccc1)CC [Compound 261] | 310 | 342 | 844 | 23144 | 28 | 355 nm | 63% |
| CCN(/C=C(/C(=O)C(=O)OC(C)(C)C)c1ccccc1)c1ccccc1 [Compound 271] | 332 | 366 | 530 | 18592 | 36 | 381 nm | 75% |
| CCN(/C=C(/C(=O)c1ccccc1C)c1ccccc1)c1ccccc1 [Compound 252] | 323 | 359 | 771 | 26295 | 39 | 373 nm and 372 nm | 48% |
| Cc1cc(C)c(C(=O)/C(=C\N2CCc3cc(C(=O)OCCCOC(=O)c4ccc5c(c4)CCN5/C=C(/C(=O)c4c(C)cc(C)cc4C)c4ccccc4)ccc32)c2ccccc2)c(C)c1 [Compound 307] | 370 | 384 | 1251 | 107885 | 22 | 402 nm | 98, 98% |

Source: US11512042B2, “Enamine compounds for absorbance of electromagnetic energy” (Commonwealth Scientific and Industrial Research Organisation, priority 2015, dated 2022)
